Assay results reported in the NIST ThermoML archive (doi:10.1016/j.jct.2009.06.019).

Assays:
[1] = 101.33 kPa, Liquid, Vibrating tube method
[2] = xn = mol fraction of the nth substance listed; conditions: 101.3 kPa, Liquid, Vibrating tube method

CN1CCN(C)C1=O [1,3-dimethyl-2-imidazolidinone]
[1]
Conditions | mass density [kg/m3]
278.15 K | 1069.3
288.15 K | 1060.43
298.15 K | 1051.6
308.15 K | 1042.79
313.15 K | 1038.38
318.15 K | 1034

CN1CCN(C)C1=O [1,3-dimethyl-2-imidazolidinone] + O
mass density [kg/m3], [2]
Conditions | 278.15 K | 288.15 K | 298.15 K | 308.15 K | 313.15 K | 318.15 K
x1 = 0.000904 | 1000.51 | 999.59 | 997.49 | 994.45 | 992.61 | 990.61
x1 = 0.001349 | 1000.75 | 999.82 | 997.72 | 994.65 | 992.81 | 990.8
x1 = 0.001765 | 1000.99 | 1000.04 | 997.92 | 994.84 | 992.99 | 990.96
x1 = 0.002486 | 1001.42 | 1000.44 | 998.29 | 995.19 | 993.33 | 991.29
x1 = 0.003566 | 1002.08 | 1001.05 | 998.84 | 995.7 | 993.82 | 991.77
x1 = 0.004326 | 1002.53 | 1001.45 | 999.22 | 996.05 | 994.15 | 992.09
x1 = 0.005478 | 1003.25 | 1002.09 | 999.81 | 996.59 | 994.68 | 992.59
x1 = 0.006268 | 1003.72 | 1002.53 | 1000.22 | 996.97 | 995.04 | 992.94
x1 = 0.006996 | 1004.16 | 1002.93 | 1000.57 | 997.3 | 995.36 | 993.25
x1 = 0.008039 | 1004.82 | 1003.54 | 1001.14 | 997.82 | 995.85 | 993.72
x1 = 0.008854 | 1005.33 | 1004.01 | 1001.57 | 998.22 | 996.23 | 994.08

CN1CCN(C)C1=O [1,3-dimethyl-2-imidazolidinone] + [2H]O[2H]
mass density [kg/m3], [2]
Conditions | 278.15 K | 288.15 K | 298.15 K | 308.15 K | 313.15 K | 318.15 K
x1 = 0.001014 | 1105.53 | 1105.7 | 1104.24 | 1101.46 | 1099.65 | 1097.62
x1 = 0.001853 | 1105.6 | 1105.72 | 1104.2 | 1101.34 | 1099.52 | 1097.48
x1 = 0.002463 | 1105.67 | 1105.72 | 1104.15 | 1101.29 | 1099.44 | 1097.38
x1 = 0.003372 | 1105.77 | 1105.73 | 1104.13 | 1101.19 | 1099.33 | 1097.23
x1 = 0.004298 | 1105.89 | 1105.78 | 1104.08 | 1101.13 | 1099.22 | 1097.09
x1 = 0.004982 | 1105.97 | 1105.83 | 1104.06 | 1101.05 | 1099.13 | 1097.01
x1 = 0.006229 | 1106.16 | 1105.89 | 1104.06 | 1100.95 | 1099 | 1096.83
x1 = 0.007163 | 1106.33 | 1105.96 | 1104.06 | 1100.89 | 1098.91 | 1096.72
x1 = 0.008054 | 1106.48 | 1106.05 | 1104.07 | 1100.87 | 1098.85 | 1096.62
x1 = 0.009084 | 1106.65 | 1106.13 | 1104.08 | 1100.81 | 1098.77 | 1096.51
x1 = 0.01051 | 1106.96 | 1106.33 | 1104.16 | 1100.77 | 1098.67 | 1096.37

[2H]O[2H] [water-d2] + CN1CCN(C)C1=O
[2], x2 = 0
Conditions | mass density [kg/m3]
278.15 K | 1105.46
288.15 K | 1105.7
298.15 K | 1104.31
308.15 K | 1101.59
313.15 K | 1099.83
318.15 K | 1097.81
